Tests used:
Format in all cases: cell-based, Diaphorina citri
Conditions in all cases: Table 1; odor diluted to 1%, 50 μL in cartridge
[1] = system: neuron 2C (rhinarial plate on flagellomere 2); test: single-sensillum electrophysiology, odor response of neuron 2C
[2] = system: neuron 6C (rhinarial plate on flagellomere 6); test: single-sensillum electrophysiology, odor response of neuron 6C
[3] = system: neuron 7C (rhinarial plate on flagellomere 7); test: single-sensillum electrophysiology, odor response of neuron 7C
[4] = system: neuron 6B (rhinarial plate on flagellomere 6); test: single-sensillum electrophysiology, odor response of neuron 6B
[5] = system: neuron 4A (rhinarial plate on flagellomere 4); test: single-sensillum electrophysiology, odor response of neuron 4A
[6] = system: neuron 7A (rhinarial plate on flagellomere 7); test: single-sensillum electrophysiology, odor response of neuron 7A; further: key: 0, no response; +, >50 spikes/second; ++, >100 spikes/second; +++, >150 spikes/second
[7] = system: neuron 7B (rhinarial plate on flagellomere 7)
[8] = system: neuron 2B (rhinarial plate on flagellomere 2); test: single-sensillum electrophysiology, odor response of neuron 2B
[9] = system: neuron 4C (rhinarial plate on flagellomere 4); test: single-sensillum electrophysiology, odor response of neuron 4C
[10] = system: neuron 6A (rhinarial plate on flagellomere 6); test: single-sensillum electrophysiology, odor response of neuron 6A
[11] = system: neuron 4B (rhinarial plate on flagellomere 4)
[12] = system: neuron 2A (rhinarial plate on flagellomere 2); test: single-sensillum electrophysiology, odor response of neuron 2A; further: key: 0, no response; +, >50 spikes/second; ++, >100 spikes/second; +++, >150 spikes/second

CCC/C=C\CO [Z2-hexanol]
odor response (frequency of action potentials during stimulus minus baseline), 2C [1]: 0
odor response (frequency of action potentials during stimulus minus baseline), 6C [2]: 0
odor response (frequency of action potentials during stimulus minus baseline), 7C [3]: 0
odor response (frequency of action potentials during stimulus minus baseline), 6B [4]: + (+, >50 spikes/second)
odor response (frequency of action potentials during stimulus minus baseline), 4A [5]: 0
odor response (frequency of action potentials during stimulus minus baseline), 7A [6]: 0
odor response (frequency of action potentials during stimulus minus baseline), 7B [7]: 0
odor response (frequency of action potentials during stimulus minus baseline), 2B [8]: 0
odor response (frequency of action potentials during stimulus minus baseline), 4C [9]: 0
odor response (frequency of action potentials during stimulus minus baseline), 6A [10]: 0
odor response (frequency of action potentials during stimulus minus baseline), 4B [11]: + (+, >50 spikes/second)
odor response (frequency of action potentials during stimulus minus baseline), 2A [12]: 0

(−)-limonene
odor response (frequency of action potentials during stimulus minus baseline), 2C [1]: 0
odor response (frequency of action potentials during stimulus minus baseline), 6C [2]: 0
odor response (frequency of action potentials during stimulus minus baseline), 7C [3]: 0
odor response (frequency of action potentials during stimulus minus baseline), 6B [4]: + (+, >50 spikes/second)
odor response (frequency of action potentials during stimulus minus baseline), 4A [5]: 0
odor response (frequency of action potentials during stimulus minus baseline), 7A [6]: 0
odor response (frequency of action potentials during stimulus minus baseline), 7B [7]: 0
odor response (frequency of action potentials during stimulus minus baseline), 2B [8]: 0
odor response (frequency of action potentials during stimulus minus baseline), 4C [9]: 0
odor response (frequency of action potentials during stimulus minus baseline), 6A [10]: 0
odor response (frequency of action potentials during stimulus minus baseline), 4B [11]: + (+, >50 spikes/second)
odor response (frequency of action potentials during stimulus minus baseline), 2A [12]: 0

CC/C=C\CC=O [Z3-hexenal]
odor response (frequency of action potentials during stimulus minus baseline), 2C [1]: 0
odor response (frequency of action potentials during stimulus minus baseline), 6C [2]: 0
odor response (frequency of action potentials during stimulus minus baseline), 7C [3]: 0
odor response (frequency of action potentials during stimulus minus baseline), 6B [4]: 0
odor response (frequency of action potentials during stimulus minus baseline), 4A [5]: ++ (++, >100 spikes/second)
odor response (frequency of action potentials during stimulus minus baseline), 7A [6]: 0
odor response (frequency of action potentials during stimulus minus baseline), 7B [7]: + (+, >50 spikes/second)
odor response (frequency of action potentials during stimulus minus baseline), 2B [8]: 0
odor response (frequency of action potentials during stimulus minus baseline), 4C [9]: 0
odor response (frequency of action potentials during stimulus minus baseline), 6A [10]: ++ (++, >100 spikes/second)
odor response (frequency of action potentials during stimulus minus baseline), 4B [11]: 0
odor response (frequency of action potentials during stimulus minus baseline), 2A [12]: 0

C=CC(O)CCCCC (stereo not drawn) [1-octen-3-ol]
odor response (frequency of action potentials during stimulus minus baseline), 2C [1]: 0
odor response (frequency of action potentials during stimulus minus baseline), 6C [2]: 0
odor response (frequency of action potentials during stimulus minus baseline), 7C [3]: 0
odor response (frequency of action potentials during stimulus minus baseline), 6B [4]: + (+, >50 spikes/second)
odor response (frequency of action potentials during stimulus minus baseline), 4A [5]: 0
odor response (frequency of action potentials during stimulus minus baseline), 7A [6]: 0
odor response (frequency of action potentials during stimulus minus baseline), 7B [7]: 0
odor response (frequency of action potentials during stimulus minus baseline), 2B [8]: 0
odor response (frequency of action potentials during stimulus minus baseline), 4C [9]: 0
odor response (frequency of action potentials during stimulus minus baseline), 6A [10]: 0
odor response (frequency of action potentials during stimulus minus baseline), 4B [11]: 0
odor response (frequency of action potentials during stimulus minus baseline), 2A [12]: 0

Cc1ccc(C(C)C)cc1 [p-cymene]
odor response (frequency of action potentials during stimulus minus baseline), 2C [1]: 0
odor response (frequency of action potentials during stimulus minus baseline), 6C [2]: 0
odor response (frequency of action potentials during stimulus minus baseline), 7C [3]: 0
odor response (frequency of action potentials during stimulus minus baseline), 6B [4]: ++ (++, >100 spikes/second)
odor response (frequency of action potentials during stimulus minus baseline), 4A [5]: 0
odor response (frequency of action potentials during stimulus minus baseline), 7A [6]: 0
odor response (frequency of action potentials during stimulus minus baseline), 7B [7]: 0
odor response (frequency of action potentials during stimulus minus baseline), 2B [8]: 0
odor response (frequency of action potentials during stimulus minus baseline), 4C [9]: 0
odor response (frequency of action potentials during stimulus minus baseline), 6A [10]: 0
odor response (frequency of action potentials during stimulus minus baseline), 4B [11]: +++ (+++, >150 spikes/second)
odor response (frequency of action potentials during stimulus minus baseline), 2A [12]: 0

CCCCCCCCCC=O [decanal]
odor response (frequency of action potentials during stimulus minus baseline), 2C [1]: 0
odor response (frequency of action potentials during stimulus minus baseline), 6C [2]: 0
odor response (frequency of action potentials during stimulus minus baseline), 7C [3]: ++ (++, >100 spikes/second)
odor response (frequency of action potentials during stimulus minus baseline), 6B [4]: ++ (++, >100 spikes/second)
odor response (frequency of action potentials during stimulus minus baseline), 4A [5]: 0
odor response (frequency of action potentials during stimulus minus baseline), 7A [6]: 0
odor response (frequency of action potentials during stimulus minus baseline), 7B [7]: 0
odor response (frequency of action potentials during stimulus minus baseline), 2B [8]: 0
odor response (frequency of action potentials during stimulus minus baseline), 4C [9]: 0
odor response (frequency of action potentials during stimulus minus baseline), 6A [10]: 0
odor response (frequency of action potentials during stimulus minus baseline), 4B [11]: +++ (+++, >150 spikes/second)
odor response (frequency of action potentials during stimulus minus baseline), 2A [12]: 0

CCCCCCCC=O [octanal]
odor response (frequency of action potentials during stimulus minus baseline), 2C [1]: 0
odor response (frequency of action potentials during stimulus minus baseline), 6C [2]: + (+, >50 spikes/second)
odor response (frequency of action potentials during stimulus minus baseline), 7C [3]: 0
odor response (frequency of action potentials during stimulus minus baseline), 6B [4]: 0
odor response (frequency of action potentials during stimulus minus baseline), 4A [5]: + (+, >50 spikes/second)
odor response (frequency of action potentials during stimulus minus baseline), 7A [6]: 0
odor response (frequency of action potentials during stimulus minus baseline), 7B [7]: ++ (++, >100 spikes/second)
odor response (frequency of action potentials during stimulus minus baseline), 2B [8]: + (+, >50 spikes/second)
odor response (frequency of action potentials during stimulus minus baseline), 4C [9]: + (+, >50 spikes/second)
odor response (frequency of action potentials during stimulus minus baseline), 6A [10]: + (+, >50 spikes/second)
odor response (frequency of action potentials during stimulus minus baseline), 4B [11]: 0
odor response (frequency of action potentials during stimulus minus baseline), 2A [12]: 0

C/C1=C\CC/C(C)=C/CC(C)(C)/C=C/C1 [α-humulene]
odor response (frequency of action potentials during stimulus minus baseline), 2C [1]: 0
odor response (frequency of action potentials during stimulus minus baseline), 6C [2]: 0
odor response (frequency of action potentials during stimulus minus baseline), 7C [3]: 0
odor response (frequency of action potentials during stimulus minus baseline), 6B [4]: 0
odor response (frequency of action potentials during stimulus minus baseline), 4A [5]: 0
odor response (frequency of action potentials during stimulus minus baseline), 7A [6]: 0
odor response (frequency of action potentials during stimulus minus baseline), 7B [7]: ++ (++, >100 spikes/second)
odor response (frequency of action potentials during stimulus minus baseline), 2B [8]: ++ (++, >100 spikes/second)
odor response (frequency of action potentials during stimulus minus baseline), 4C [9]: 0
odor response (frequency of action potentials during stimulus minus baseline), 6A [10]: 0
odor response (frequency of action potentials during stimulus minus baseline), 4B [11]: 0
odor response (frequency of action potentials during stimulus minus baseline), 2A [12]: 0

CCCSSCCC [dipropyl disulfide]
odor response (frequency of action potentials during stimulus minus baseline), 2C [1]: 0
odor response (frequency of action potentials during stimulus minus baseline), 6C [2]: 0
odor response (frequency of action potentials during stimulus minus baseline), 7C [3]: 0
odor response (frequency of action potentials during stimulus minus baseline), 6B [4]: ++ (++, >100 spikes/second)
odor response (frequency of action potentials during stimulus minus baseline), 4A [5]: 0
odor response (frequency of action potentials during stimulus minus baseline), 7A [6]: 0
odor response (frequency of action potentials during stimulus minus baseline), 7B [7]: 0
odor response (frequency of action potentials during stimulus minus baseline), 2B [8]: 0
odor response (frequency of action potentials during stimulus minus baseline), 4C [9]: 0
odor response (frequency of action potentials during stimulus minus baseline), 6A [10]: 0
odor response (frequency of action potentials during stimulus minus baseline), 4B [11]: + (+, >50 spikes/second)
odor response (frequency of action potentials during stimulus minus baseline), 2A [12]: 0

C=C1CC/C=C(\C)CC[C@@H]2[C@@H]1CC2(C)C [β-caryophyllene]
odor response (frequency of action potentials during stimulus minus baseline), 2C [1]: 0
odor response (frequency of action potentials during stimulus minus baseline), 6C [2]: 0
odor response (frequency of action potentials during stimulus minus baseline), 7C [3]: 0
odor response (frequency of action potentials during stimulus minus baseline), 6B [4]: 0
odor response (frequency of action potentials during stimulus minus baseline), 4A [5]: 0
odor response (frequency of action potentials during stimulus minus baseline), 7A [6]: 0
odor response (frequency of action potentials during stimulus minus baseline), 7B [7]: + (+, >50 spikes/second)
odor response (frequency of action potentials during stimulus minus baseline), 2B [8]: ++ (++, >100 spikes/second)
odor response (frequency of action potentials during stimulus minus baseline), 4C [9]: 0
odor response (frequency of action potentials during stimulus minus baseline), 6A [10]: 0
odor response (frequency of action potentials during stimulus minus baseline), 4B [11]: 0
odor response (frequency of action potentials during stimulus minus baseline), 2A [12]: 0

CCCC(=O)OCC [ethyl butyrate]
odor response (frequency of action potentials during stimulus minus baseline), 2C [1]: + (+, >50 spikes/second)
odor response (frequency of action potentials during stimulus minus baseline), 6C [2]: 0
odor response (frequency of action potentials during stimulus minus baseline), 7C [3]: ++ (++, >100 spikes/second)
odor response (frequency of action potentials during stimulus minus baseline), 6B [4]: ++ (++, >100 spikes/second)
odor response (frequency of action potentials during stimulus minus baseline), 4A [5]: 0
odor response (frequency of action potentials during stimulus minus baseline), 7A [6]: 0
odor response (frequency of action potentials during stimulus minus baseline), 7B [7]: 0
odor response (frequency of action potentials during stimulus minus baseline), 2B [8]: 0
odor response (frequency of action potentials during stimulus minus baseline), 4C [9]: 0
odor response (frequency of action potentials during stimulus minus baseline), 6A [10]: 0
odor response (frequency of action potentials during stimulus minus baseline), 4B [11]: +++ (+++, >150 spikes/second)
odor response (frequency of action potentials during stimulus minus baseline), 2A [12]: 0
